Assay results published in publication PMC10691846 (Protein & Cell, 2023).

T1: Escherichia coli CydD (Escherichia coli, UniProt P29018 1-588)
T1 construct: CydD, subunit of the ABC transporter CydDC of Escherichia coli; also called EcCydD; source: purified as the EcCydDC complex
T1 sequence: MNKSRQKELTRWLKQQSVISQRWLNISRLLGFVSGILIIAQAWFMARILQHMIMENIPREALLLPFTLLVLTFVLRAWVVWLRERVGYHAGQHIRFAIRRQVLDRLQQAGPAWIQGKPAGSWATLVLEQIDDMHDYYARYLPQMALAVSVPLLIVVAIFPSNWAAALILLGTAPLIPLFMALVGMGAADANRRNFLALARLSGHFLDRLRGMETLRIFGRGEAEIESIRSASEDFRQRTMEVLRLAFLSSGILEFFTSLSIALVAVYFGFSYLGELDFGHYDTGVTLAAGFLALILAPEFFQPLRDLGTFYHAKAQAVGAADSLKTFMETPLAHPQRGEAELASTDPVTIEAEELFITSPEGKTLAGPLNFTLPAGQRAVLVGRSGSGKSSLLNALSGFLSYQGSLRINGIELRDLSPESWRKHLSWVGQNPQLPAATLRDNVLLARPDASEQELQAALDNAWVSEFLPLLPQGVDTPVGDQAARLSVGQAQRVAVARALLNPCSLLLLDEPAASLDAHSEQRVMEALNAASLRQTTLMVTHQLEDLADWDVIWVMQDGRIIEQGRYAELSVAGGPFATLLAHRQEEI

B1: Escherichia coli CydC (natural protein)
chain: MRALLPYLALYKRHKWMLSLGIVLAIVTLLASIGLLTLSGWFLSASAVAGVAGLYSFNYMLPAAGVRGAAITRTAGRYFERLVSHDATFRVLQHLRIYTFSKLLPLSPAGLARYRQGELLNRVVADVDTLDHLYLRVISPLVGAFVVIMVVTIGLSFLDFTLAFTLGGIMLLTLFLMPPLFYRAGKSTGQNLTHLRGQYRQQLTAWLQGQAELTIFGASDRYRTQLENTEIQWLEAQRRQSELTALSQAIMLLIGALAVILMLWMASGGVGGNAQPGALIALFVFCALAAFEALAPVTGAFQHLGQVIASAVRISDLTDQKPEVTFPDTQTRVADRVSLTLRDVQFTYPEQSQQALKGISLQVNAGEHIAILGRTGCGKSTLLQQLTRAWDPQQGEILLNDSPIASLNEAALRQTISVVPQRVHLFSATLRDNLLLASPGSSDEALSEILRRVGLEKLLEDAGLNSWLGEGGRQLSGGELRRLAIARALLHDAPLVLLDEPTEGLDATTESQILELLAEMMREKTVLMVTHRLRGLSRFQQIIVMDNGQIIEQGTHAELLARQGRYYQFKQGL
notes: CydC, subunit of the ABC transporter CydDC of Escherichia coli; also called EcCydC; source: purified as the EcCydDC complex

How the values were obtained:
EcCydDC = target: T2, EcCydDC (Escherichia coli, UniProt P23886+P29018); assay: cryo-EM structure of the complex; format: binding; details: ATP-bound occluded state
T2 construct: gene cydC; purified CydC-CydD heterodimer

MsCydDC [1] = target: T3, MsCydDC (Mycolicibacterium smegmatis, UniProt A0QXA6+A4ZHS8); assay: ATPase activity assay; format: biochemical; details: Arg85 of CydD ICL1 stabilizes the adenosine ring at the CydD NBD
T3 construct: gene MSMEG3240; purified CydC-CydD heterodimer

MsCydDC [2] = target: T3, MsCydDC; assay: ATPase activity assay; format: biochemical; details: Arg326 of CydC Linking-beta2 Loop sandwiches the adenosine ring at the CydC NBD
MsCydDC [3] = target: T3, MsCydDC; assay: ATPase activity assay; format: biochemical; details: Arg324 of CydC Linking-beta2 Loop sandwiches the adenosine ring at the CydC NBD
MsCydDC [4] = target: T3, MsCydDC; assay: cryo-EM structure of the complex; format: binding; details: Mg2+; ATP in the NBDs of CydC and CydD; outward-facing state
Escherichia coli CydD = target: T1, Escherichia coli CydD; assay: cryo-EM structure; purified CydDC complexes; MsCydDC in apo and ATP-bound states, EcCydDC in heme-loading and ATP-bound states; details: both partners purified

T3 sequence (A0QXA6 entry or part of it): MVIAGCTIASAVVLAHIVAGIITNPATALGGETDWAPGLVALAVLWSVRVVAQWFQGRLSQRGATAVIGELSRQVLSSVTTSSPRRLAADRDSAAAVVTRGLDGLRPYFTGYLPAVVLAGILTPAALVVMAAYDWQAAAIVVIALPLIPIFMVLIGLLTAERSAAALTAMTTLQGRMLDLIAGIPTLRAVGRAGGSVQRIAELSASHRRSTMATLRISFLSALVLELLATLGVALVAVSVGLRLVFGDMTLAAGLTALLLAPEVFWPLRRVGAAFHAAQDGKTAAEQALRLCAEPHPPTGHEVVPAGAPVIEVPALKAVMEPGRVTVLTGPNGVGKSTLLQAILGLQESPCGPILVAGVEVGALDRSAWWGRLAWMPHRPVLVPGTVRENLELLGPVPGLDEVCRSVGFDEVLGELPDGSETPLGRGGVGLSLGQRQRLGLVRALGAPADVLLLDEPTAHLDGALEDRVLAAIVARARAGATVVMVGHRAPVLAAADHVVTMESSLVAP
T3 sequence (A4ZHS8 entry or part of it): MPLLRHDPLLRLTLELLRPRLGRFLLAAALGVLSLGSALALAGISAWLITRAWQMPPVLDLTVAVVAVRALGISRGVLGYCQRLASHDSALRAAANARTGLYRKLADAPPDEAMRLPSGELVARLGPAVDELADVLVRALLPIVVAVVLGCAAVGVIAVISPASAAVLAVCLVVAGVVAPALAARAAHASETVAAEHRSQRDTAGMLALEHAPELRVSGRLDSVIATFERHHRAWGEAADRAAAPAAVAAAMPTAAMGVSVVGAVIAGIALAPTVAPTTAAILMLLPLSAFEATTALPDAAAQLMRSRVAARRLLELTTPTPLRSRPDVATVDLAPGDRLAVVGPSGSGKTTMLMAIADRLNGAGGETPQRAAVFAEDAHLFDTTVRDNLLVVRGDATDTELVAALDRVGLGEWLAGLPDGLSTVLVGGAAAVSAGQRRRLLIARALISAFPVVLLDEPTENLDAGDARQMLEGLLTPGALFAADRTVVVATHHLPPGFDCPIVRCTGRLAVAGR

Row | binding result (Escherichia coli CydD) | Molecule | cryo-EM structure of the complex (EcCydDC) | ATPase activity (MsCydDC [1]) | ATPase activity (MsCydDC [2]) | ATPase activity (MsCydDC [3]) | cryo-EM structure of the complex (MsCydDC [4])
1 |  | Nc1ncnc2c1ncn2[C@@H]1O[C@H](COP(=O)(O)OP(=O)(O)OP(=O)(O)O)[C@@H](O)[C@H]1O [ATP] | We then determined the Cryo-EM structures of CydDC from Msm or E. coli | a single mutation of any of these Arg residues significantly affected the ATPase activity | a single mutation of any of these Arg residues significantly affected the ATPase activity | a single mutation of any of these Arg residues significantly affected the ATPase activity | the adenosine ring of ATP is stabilized by the sidechain of Arg85 from ICL1
2 | binds | B1 |  |  |  |  | 
